Laboratory results from patent US10428080B2, “TBK/IKK inhibitor compounds and uses thereof” (Merck Patent GmbH, priority 2015, dated 2019).
pIC50: −log10 of the molar value. Structures can show the parent of a compound that is named as a salt. Where two headings read alike, the source gives them in different places.

What was measured:
TBK1 = target: T1, TBK1 (Homo sapiens, UniProt Q9UHD2); assay: TBK Biochemical Assay; details: read-out: TBK1 IC50
T1 sequence (Q9UHD2 1-729): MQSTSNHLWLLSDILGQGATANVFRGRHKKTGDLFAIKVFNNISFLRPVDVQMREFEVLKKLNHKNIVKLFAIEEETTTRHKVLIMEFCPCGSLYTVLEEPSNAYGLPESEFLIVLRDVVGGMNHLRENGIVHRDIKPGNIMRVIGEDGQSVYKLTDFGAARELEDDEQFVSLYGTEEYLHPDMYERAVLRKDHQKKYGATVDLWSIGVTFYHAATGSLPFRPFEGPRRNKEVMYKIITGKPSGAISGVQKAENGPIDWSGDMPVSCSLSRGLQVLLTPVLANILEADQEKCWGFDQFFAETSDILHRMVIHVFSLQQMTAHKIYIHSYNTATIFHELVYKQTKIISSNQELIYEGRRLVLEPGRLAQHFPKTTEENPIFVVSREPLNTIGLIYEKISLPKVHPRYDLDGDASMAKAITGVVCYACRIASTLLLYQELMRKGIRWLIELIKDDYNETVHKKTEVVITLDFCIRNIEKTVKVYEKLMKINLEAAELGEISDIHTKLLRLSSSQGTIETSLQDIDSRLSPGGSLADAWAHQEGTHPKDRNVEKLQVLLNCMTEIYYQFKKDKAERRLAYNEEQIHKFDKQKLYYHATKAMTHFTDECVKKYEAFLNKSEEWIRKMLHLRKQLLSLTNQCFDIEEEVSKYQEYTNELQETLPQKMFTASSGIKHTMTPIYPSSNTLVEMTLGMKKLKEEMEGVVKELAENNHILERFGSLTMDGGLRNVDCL
Method in brief: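 Caliper LabChip mobility-shift readout of substrate and product after 90 min of TBK1 reaction at 25° C and stop-buffer addition. Compounds tested in 1:4 serial dilution over 10 points from 30 uM final at 1% DMSO; staurosporine 10 uM final defines full inhibition.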

IKKε = target: T2, IKKε (Homo sapiens, UniProt Q14164); assay: IKKe Biochemical Assay; details: read-out: IKKε IC50
T2 sequence (Q14164 1-716): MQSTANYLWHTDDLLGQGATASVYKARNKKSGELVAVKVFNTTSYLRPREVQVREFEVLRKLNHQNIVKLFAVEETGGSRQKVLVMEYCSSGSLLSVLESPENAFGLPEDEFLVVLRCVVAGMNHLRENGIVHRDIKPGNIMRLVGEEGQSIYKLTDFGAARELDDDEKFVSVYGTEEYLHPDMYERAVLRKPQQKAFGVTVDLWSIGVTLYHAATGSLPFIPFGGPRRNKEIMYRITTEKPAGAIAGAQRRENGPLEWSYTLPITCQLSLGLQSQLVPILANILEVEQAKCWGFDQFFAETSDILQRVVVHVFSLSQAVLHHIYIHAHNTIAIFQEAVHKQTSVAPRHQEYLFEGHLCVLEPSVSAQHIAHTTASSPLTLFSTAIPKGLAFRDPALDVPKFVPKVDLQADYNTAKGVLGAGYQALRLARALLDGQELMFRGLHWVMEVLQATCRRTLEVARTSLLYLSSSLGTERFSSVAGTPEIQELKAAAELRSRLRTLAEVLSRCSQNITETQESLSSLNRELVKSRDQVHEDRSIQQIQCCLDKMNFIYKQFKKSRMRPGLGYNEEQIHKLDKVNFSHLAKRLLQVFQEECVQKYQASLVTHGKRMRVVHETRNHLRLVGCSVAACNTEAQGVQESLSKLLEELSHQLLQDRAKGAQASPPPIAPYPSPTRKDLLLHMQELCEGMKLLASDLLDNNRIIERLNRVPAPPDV
Method in brief: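 Activity was measured as mobility-shift separation of phosphorylated from unphosphorylated substrate on a LabChip EZ Reader. Compound was titrated from 30 uM final in 10 points, 1:4 steps, with 1% DMSO, and enzyme plus substrate reacted 90 min at 25° C before stop buffer. Control wells held 10 uM staurosporine.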

[1] = test system: phosphorylation of the IRF-3 protein in MDA-MB-468 cells; assay: pIRF3 immunocytochemistry cell based assay; details: Homo sapiens
Method in brief: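 After 2 h stimulation with Poly(I:C) (10 ug/ml), following 1 h compound pre-treatment (10-point, 3-fold dilution, top 10 uM), MDA-MB-468 cells were fixed and stained with anti-pIRF3 antibody. pIRF3 fluorescence was normalized to PI staining or cell count on an Acumen cytometer. IC50 curves were derived from this.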

[2] = MDA-MB-468 cells, Poly(I:C) stimulation, read-out: pIRF3 IC50
[3] = MDA-MB-468, read-out: pIRF3 IC50

Structure (SMILES)	pIC50 (TBK1)	pIC50 (IKKε)	pIC50 [1, 2]	pIC50 [1, 3]
COc1cc(C(=O)N(C)C)cnc1-c1cc2ncc(OC)c(-c3ccc(OC4CCOCC4)c(C#N)n3)c2o1 [Compound 338, 6-[7-[6-cyano-5-(oxan-4-yloxy)pyridin-2-yl]-6-methoxyfuro[3,2-b]pyridin-2-yl]-5-methoxy-N,N-dimethylpyridine-3-carboxamide hydrochloride]	6.00 to 7.00	6.00 to 7.00	5.30 to 6.00	
COc1cc(C(=O)N[C@H]2COC[C@@H]2N(C)C)ccc1-c1cc2nccc(-c3ccc(OC4CCOCC4)c(C#N)c3)c2o1 [Compound 346, 4-[7-[3-cyano-4-(oxan-4-yloxy)phenyl]furo[3,2-b]pyridin-2-yl]-N-[(3R,4R)-4-(dimethylamino)oxolan-3-yl]-3-methoxy benzamide]	> 7.00	> 7.00		6.00 to 7.00
COc1cc(C(=O)N(C)C)cnc1-c1cc2ncc(F)c(-c3ccc(NC4CCOCC4)c(C#N)n3)c2o1 [Compound 352, 6-(7-[6-cyano-5-[(oxan-4-yl)amino]pyridin-2-yl]-6-fluorofuro[3,2-b]pyridin-2-yl)-5-methoxy-N,N-dimethylpyridine-3-carboxamide]	6.00 to 7.00	5.30 to 6.00	5.30 to 6.00	
COc1cc(C(=O)NC2CN(CC(C)C)C2)ccc1-c1cc2nccc(-c3ccc(OC4CCOCC4)c(C#N)c3)c2o1 [Compound 355, 4-[7-[3-cyano-4-(oxan-4-yloxy)phenyl]furo[3,2-b]pyridin-2-yl]-3-methoxy-N-[1-(2-methylpropyl)azetidin-3-yl]benzamide]	> 7.00	> 7.00		6.00 to 7.00
COc1cc(C(=O)NC2CCC(=O)NC2C)ccc1-c1cc2nccc(-c3ccc(OC4CCOCC4)c(C#N)c3)c2o1 (stereo not drawn) [Compound 369, 4-[7-[3-cyano-4-(oxan-4-yloxy)phenyl]furo[3,2-b]pyridin-2-yl]-3-methoxy-N-(2-methyl-6-oxopiperidin-3-yl)benzamide]	> 7.00	> 7.00	6.00 to 7.00	
COc1cc(C(=O)NC2(C)CCN(C)CC2)ccc1-c1cc2nccc(-c3ccc(OC4CCOCC4)c(C#N)c3)c2o1 [Compound 370, 4-[7-[3-cyano-4-(oxan-4-yloxy)phenyl]furo[3,2-b]pyridin-2-yl]-N-(1,4-dimethylpiperidin-4-yl)-3-methoxybenzamide hydrochloride]	> 7.00	> 7.00	6.00 to 7.00	
COc1cc(C(=O)NC2CC(N3CCCC3)C2)ccc1-c1cc2nccc(-c3ccc(OC4CCOCC4)c(C#N)c3)c2o1 (stereo not drawn) [Compound 371, 4-(7-(3-cyano-4-(tetrahydro-2H-pyran-4-yloxy)phenyl)furo[3,2-b]pyridin-2-yl)-3-methoxy-N-(3-(pyrrolidin-1-yl)cyclobutyl)benzamide]	> 7.00	> 7.00		6.00 to 7.00
COc1cc(C(=O)N[C@@]23C[C@@H]2CN(C(C)C)C3)ccc1-c1cc2nccc(-c3ccc(OC4CCOCC4)c(C#N)c3)c2o1 [Compound 372, 4-[7-[3-cyano-4-(oxan-4-yloxy)phenyl]furo[3,2-b]pyridin-2-yl]-3-methoxy-N-[(1S,5R)-3-(propan-2-yl)-3-azabicyclo[3.1.0]hexan-1-yl]benzamide]	> 7.00	> 7.00		6.00 to 7.00

Further lines, with some results ahead:

pIC50 (TBK1)	pIC50 (IKKε)	pIC50 [1, 2]	Structure (SMILES)	pIC50 [1, 3]
> 7.00	> 7.00	6.00 to 7.00	COc1cc(C(=O)N(C)CCO)cnc1-c1cc2ncc(F)c(-c3ccc(OC4CCOCC4)c(C#N)c3)c2o1 [Compound 334, 6-[7-[3-cyano-4-(oxan-4-yloxy)phenyl]-6-fluorofuro[3,2-b]pyridin-2-yl]-N-(2-hydroxyethyl)-5-methoxy-N-methylpyridine-3-carboxamide]	
> 7.00	> 7.00	6.00 to 7.00	COc1cc(C(=O)NC2CC(CN(C)C)C2)ccc1-c1cc2nccc(-c3ccc(OC4CCOCC4)c(C#N)c3)c2o1 (stereo not drawn) [Compound 344, 4-[7-[3-cyano-4-(oxan-4-yloxy)phenyl]furo[3,2-b]pyridin-2-yl]-N-[3-[(dimethylamino)methyl]cyclobutyl]-3-methoxybenzamide]	
> 7.00	> 7.00	6.00 to 7.00	COc1cc(C(=O)NC2(CO)CCN(C)C2)ccc1-c1cc2nccc(-c3ccc(OC4CCOCC4)c(C#N)c3)c2o1 (stereo not drawn) [Compound 345, 4-[7-[3-cyano-4-(oxan-4-yloxy)phenyl]furo[3,2-b]pyridin-2-yl]-N-[3-(hydroxymethyl)-1-methylpyrrolidin-3-yl]-3-methoxybenzamide]	
> 7.00	> 7.00	6.00 to 7.00	COc1cc(C(=O)NC2CCN(C)CC2O)ccc1-c1cc2nccc(-c3ccc(OC4CCOCC4)c(C#N)c3)c2o1 (stereo not drawn) [Compound 347, 4-[7-[3-cyano-4-(oxan-4-yloxy)phenyl]furo[3,2-b]pyridin-2-yl]-N-(3-hydroxy-1-methylpiperidin-4-yl)-3-methoxybenzamide]	
> 7.00	> 7.00	6.00 to 7.00	COc1cc(C(=O)NC2CN(C)CCC2O)ccc1-c1cc2nccc(-c3ccc(OC4CCOCC4)c(C#N)c3)c2o1 (stereo not drawn) [Compound 348, 4-[7-[3-cyano-4-(oxan-4-yloxy)phenyl]furo[3,2-b]pyridin-2-yl]-N-(4-hydroxy-1-methylpiperidin-3-yl)-3-methoxybenzamide]	
> 7.00	> 7.00	6.00 to 7.00	COc1cc(C(=O)NC2(C#N)CCN(C)C2)ccc1-c1cc2nccc(-c3ccc(OC4CCOCC4)c(C#N)c3)c2o1 (stereo not drawn) [Compound 349, N-(3-cyano-1-methylpyrrolidin-3-yl)-4-[7-[3-cyano-4-(oxan-4-yloxy)phenyl]furo[3,2-b]pyridin-2-yl]-3-methoxybenzamide]	
> 7.00	> 7.00	6.00 to 7.00	COc1cc(C(=O)N(C)CCO)cnc1-c1cc2nccc(-c3ccc(NC4CCOCC4)c(C#N)n3)c2o1 [Compound 356, 6-(7-[6-cyano-5-[(oxan-4-yl)amino]pyridin-2-yl]furo[3,2-b]pyridin-2-yl)-N-(2-hydroxyethyl)-5-methoxy-N-methylpyridine-3-carboxamide]	
> 7.00	> 7.00	6.00 to 7.00	COc1cc(C(=O)NC2CN(C(C)C)C2)ccc1-c1cc2nccc(-c3ccc(OC4CCOCC4)c(C#N)c3)c2o1 [Compound 364, 4-(7-(3-cyano-4-(tetrahydro-2H-pyran-4-yloxy)phenyl)furo[3,2-b]pyridin-2-yl)-N-(1-isopropylazetidin-3-yl)-3-methoxybenzamide]	
> 7.00	> 7.00	> 7.00	COc1cc(C(=O)NC2(C)CCCN(C)C2)ccc1-c1cc2nccc(-c3ccc(OC4CCOCC4)c(C#N)c3)c2o1 (stereo not drawn) [Compound 367, 4-[7-[3-cyano-4-(oxan-4-yloxy)phenyl]furo[3,2-b]pyridin-2-yl]-N-(1,3-dimethylpiperidin-3-yl)-3-methoxybenzamide]	
> 7.00	> 7.00	6.00 to 7.00	COc1cc(C(=O)NC2(CN(C)C)CCC2)ccc1-c1cc2nccc(-c3ccc(OC4CCOCC4)c(C#N)c3)c2o1 [Compound 368, 4-[7-[3-cyano-4-(oxan-4-yloxy)phenyl]furo[3,2-b]pyridin-2-yl]-N-[1-[(dimethylamino)methyl]cyclobutyl]-3-methoxybenzamide]	
